Results published in patent US20110060056A1, “Inhibition of the Survival of Gastric Cancer by Cyclohexenone Compounds from Antrodia Camphorata” (GOLDEN BIOTECHNOLOGY CORPORATION, priority 2009, published 2011).

Tested on: gastric cancer cell line TSGH-9201
Assay: In vitro survival assay (MTT) for anti-gastric cancer effects
Type: cell-based
Conditions: Homo sapiens, TSGH-9201 cells, 48 hours treatment, read-out: IC50 (half inhibition concentration), survival of gastric cancer cells
Description: Inhibiting effects of gastric cancer cells by cyclohexenone compounds of Antrodia camphorata from example 1 were assessed according to the anticancer-drug screening model of National Cancer Institute (NCI). The compound 4-hydroxy-2,3-dimethoxy-6-methyl-5-(3,7,11-trimethyl-dodeca-2,6,10-trienyl)-cyclohex-2-enone from example 1 was added into the culture media of gastric cancer cell line TSGH-9201 to determine the survival rates. Survival of cell was analyzed using MTT assay. TSGH-9201 cell line was a human gastric carcinoma cell line.
MTT assay is commonly used to analyze cell proliferation, survival rate of viable cells and cytotoxicity. MTT (3[4,5-dimethylthiazol-2-yl]-2,5-diphenyltetrazolium bromide) is a yellow dye which can be converted to water-insoluble purple formazan on the reductive cleavage of its tetrazolium ring by the succinate tetrazolium reductase in mitochondria of cells. The amount of formazan produced is used to detect the number of viable cells and calculate the survival rates.
The TSGH-9201 cells were cultivated in DMEM medium supplemented with 10% fetal bovine serum, 100 U/ml of Penicillin and 100 μg/ml of Streptomycin at 37° C., 5% CO2 for 24 hours. Proliferated cells were washed once with PBS, treated with 1× trypsin-EDTA, and centrifuged at 1200 rpm for 5 min. […] The absorbances were measured at 570 nm with an ELISA Reader to determine the survival rates.

## COC1=C(OC)C(O)C(C/C=C(\C)CC/C=C(\C)CCC=C(C)C)C(C)C1=O (stereo not shown) [formula 2, 4-hydroxy-2,3-dimethoxy-6-methyl-5-(3,7,11-trimethyl-dodeca-2,6,10-trienyl)-cyclohex-2-enone]
  IC50: 1.32 mg/L
